Results: patent US5015661A, “Chromanes and their pharmaceutical compositions and methods” (Hoffmann-La Roche Inc., priority 1989, dated 1991)

Legend:
[1] = test system: arachidonic acid-induced mouse ear edema; experiment: Mouse ear edema test (in vivo), arachidonic acid-induced; conditions: 1 mg topical, CD-1 male mice, 0.5 mg arachidonic acid 0.5 or 4 hours later, ear biopsy weight after 1 hour, read-out: EAR EDEMA % INHIB. 1 mg
Procedure: MOUSE EAR EDEMA TEST (IN VIVO)
In this animal model system, the application of arachidonic acid to the ear results in the biosynthesis of the metabolic products […]-6,8,11,14-eicosatetraenoic acid (5-HETE), leukotriene B4 (LTB4), leukotriene C4 (LTC4), […]-5,8,10,14-eicosatetraenoic acid (12-HETE), and prostaglandin E2 (PGE2) at the site of application, followed by the influx of neutrophils into the site and the rapid development of edema within 30 to 60 minutes (See, for instance, Young, Wagner and Spries, "Tachyphylaxis in 12-O-Tetradecanoylphorbol Acetate And Arachidonic Acid-Induced Ear Edma," J. Invest. Dermatol. 80:48 (1983) and Hames, Opas and Bonney, "Arachidonic Acid MetaboIites in Mouse Ear Edma" Advances in Inflammation Research. 11:57 (1986).
CD-1 male mice weighing 15 to 25 g were employed, and they were designated as follows: (1) Control Group, in which no arachidonic acid or test compound was to be applied, (2) Arachidonic Acid-Treated Group, in which no test compound was to be applied, and (3) Treated Group, in which the test compound was to be applied first, followed by the application of arachidonic acid.
In the case of the Group (3) animals, the test compound, dissolved in acetone, was applied to the dorsal surface of the right ear of the mouse with a 25-microliter pipette or, with the dose of the test compound being varied. After 0.5 hours in some cases and 4 hours in others, the arachidonic acid was topically applied in the same manner as above to the pretreated ear areas. In each case of arachidonic acid application, an amount of 0.5 mg dissolved in 25 microliters of acetone was used. After 1 hour, the mice were sacrificed by carbon dioxide inhalation. A 6mm-diameter standard biopsy punch was used to obtain a uniform tissue sample from the ear of each mouse so treated, and the tissue samples were weighted to the nearest 0.1 mg. The percent inhibition of ear edema formation was calculated as follows: [formula]

[2] = target: T1, Δ^5 -lipoxygenase from rat basophilic leukemia (RBL-1) cells (Rattus norvegicus, UniProt P12527); experiment: In vitro test for Δ^5 -lipoxygenase inhibitors (5-LO), RBL-1 cell enzyme, 5-HETE radioimmunoassay; format: biochemical; conditions: RBL-1 5-LO; 10 min preincubation; 8.25 μM arachidonic acid, 10 min at 37° C.; 5-HETE formation; read-out: 5-LO IC-50
T1 construct: endogenous in cells; host or cells: RBL-1 rat basophilic leukemia cells (ATCC CRL 1378); 113,000×g supernatant (cytosolic fraction)
T1 sequence (P12527 1-673): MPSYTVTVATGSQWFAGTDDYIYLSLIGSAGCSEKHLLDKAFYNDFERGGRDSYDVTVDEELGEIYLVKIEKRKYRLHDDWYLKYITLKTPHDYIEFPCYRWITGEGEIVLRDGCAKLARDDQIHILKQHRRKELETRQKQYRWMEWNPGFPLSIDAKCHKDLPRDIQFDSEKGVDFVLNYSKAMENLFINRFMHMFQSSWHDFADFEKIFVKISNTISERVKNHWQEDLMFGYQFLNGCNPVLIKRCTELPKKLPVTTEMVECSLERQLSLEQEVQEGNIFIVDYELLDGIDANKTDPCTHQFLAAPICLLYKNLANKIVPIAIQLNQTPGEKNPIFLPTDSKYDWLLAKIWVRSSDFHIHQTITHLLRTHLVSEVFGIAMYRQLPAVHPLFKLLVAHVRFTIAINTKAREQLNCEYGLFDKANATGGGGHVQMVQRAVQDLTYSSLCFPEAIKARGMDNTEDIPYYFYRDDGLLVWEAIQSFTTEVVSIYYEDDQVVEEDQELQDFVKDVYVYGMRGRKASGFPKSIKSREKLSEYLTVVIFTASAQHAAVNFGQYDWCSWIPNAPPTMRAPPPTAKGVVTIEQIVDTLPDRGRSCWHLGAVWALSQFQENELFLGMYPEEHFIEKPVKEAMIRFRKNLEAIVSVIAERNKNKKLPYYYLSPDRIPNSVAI
Procedure: IN VITRO TEST FOR Δ^5 -LIPOXYGENASE INHIBITORS Compounds of formula I of the invention were tested for their effect on Δ^5 -lipoxygenase from rat basophilic leukemia (RBL-1) cells. Materials. RBL-1 cells (CRL 1378) were obtained from the American TYpe Culture Collection, Rockville, MD. DMEM and glutamine were purchased from Flow Labs, McLean, VA. FBS (Gibco, Grand Island, NY) was heat-inactivated for 1 hour at 56° C. Reagents for protein determinations were obtained from Biorad, Rockville Center, NY. Arachidonic acid (approx. 99%), ATP (disodium slat), BHT, dextran (clinical grade), tetrasodium EDTA, gelatin, gentamycin sulfate solution, reduced glutathione, 1 M HEPES buffer, indomethacin, NaCl, reduced NADpH, Trizma 7.2, and Trizma 8.5 were purchased from Sigma Chemical, St. Louis, MO. CaCl2 dihydrate, Norit A charcoal, and citric acid monohydrate were obtained from Fisher Scientific, Pittsburgh, PA. […] MA. A synthetic 5-HETE standard was supplied by Dr. M. Rosenberger, Dept. of Medicinal Chemistry, Hoffmann-La Roche, Nutley, NJ; [see Corey, E.J., and Hashimoto, S. (1981 ) Tet. Letters, 22, 299-302 for method of preparation]. Ecoscint liquid sointillation fluid was purchased from National Diagnostics, Sommerville, NJ. Isolation of 5-lipoxygenase. […] Approximately 7-9 days after thawing, RBL-1 cells growing in log phase were seeded at a density of 7500 viable cells/ml in a closed 89-liter spinner flask. The cells were stirred constantly for 3-4 days at 37° C. until they reached a density greater than 500,000/ml but less than 800,00/ml. RBL-1 cells were harvested by centrifugation at 4° C. at 1500×g for 10 minutes and were washed 3 times with ice cold 0.05 M tris-HCl, pH 7.2, tetrasodium EDTA (buffer 1). The cells were washed last in 0.05 M Tris-HCl containing 14 μM indomethacin, 1 mM glutathione, 1.5 mM NaCl, and 1 mM tetrasodium EDTA (buffer 2), resuspended at a density of 5×108'/ml (approximately 10 ml) and disrupted manually at 4° C. using a 40 ml Dounce (type A pestle) homogenizer. After 5 minutes of homogenization. 95% cell lysis was confirmed by phase contrast microscopy. The broken cells were diluted 1:2 with buffer 2 and centrifuged at 12,380×g for 10 minutes at 4° C. to pellet cellular debris and granules. The 12,380×g supernatant was centrifuged at 113,000×g for 60 minutes to pellet microsomes. The high-speed supernatant (5.9±0.48 mg/ml protein) was frozen immediately in 1 ml aliquots using a dry ice/acetone bath. The isolated cytosolic fraction was stored in liquid N2 for up to 8 weeks without loss of 5-LO enzyme activity. Lipoxygenase Assay. Compounds Were dissolved at 25 mM concentration in DMSO, then diluted to final concentrations using 95% ethanol. For a typical enzyme assay, the partially purified 5-LO preparation was preincubated with drug or vehicle for 10 minutes at 30° C. The assay tubes were then transferred at a 37° C. water bath where they received arachidonic acid (8.25 μM final concentration) to initiate 5-LO activity. In addition to enzyme and substrate, each reaction tube contained: 12.5 μmoles of Tris-HCl (pH 7.2), 25 nmoles glutathione, 0.35 nmoles indomethacin and 1.25 μmoles of CaCl2 and ATP to yield a total of volume of 250 μl. The enzyme reaction was terminated after 10 minutes by the addition of 75μl […] citric acid to yield pH 3.5. The samples were immediately cooled on ice and neutralized by dilution with 0.05 M Tris-HCl, pH 8.5, which contained 25 mg/1 BHT. A boiled cytosol control was placed at the end of each assay to measure non-enzymatic oxidation of arachidonic acid. The mean specific activity of the 5-LO enzyme preparation was approximately 66.16±14.39 pmol 5-HETE/min/mg protein. Radioimmunoassay for 5-HETE. Under the assay conditions described, the 5-LO catalyzed the conversion of arachidonic acid to 5-HPETE which, as a consequence o peroxidase activity, was reduced to 5-HETE. A specific radioimmunoassay was employed to quantitate the amount (pmoles) of 5-HETE formed during the enzyme reaction. […]

IC50 [2]	SMILES	inhibition in vivo at 1 mg [1]
1 nM	COc1cc(C=O)cc2cc(C3(C)CCc4c(C)c(O)c(C)c(C)c4O3)oc12 (racemic) [Example 54, rac-2-(3,4-Dihydro-6-hydroxy-2,5,7,8-tetramethyl-2H-1-benzopyran-2-yl)-7-methoxy-5-benzofurancarboxaldehyde]	40%
110 nM	Cc1c(C)c2c(c(C)c1O)CCC(C)(CCc1ccccc1)O2 (stereo not shown) [Example 56, 3,4-Dihydro-2,5,7,8-tetramethyl-2-(2-phenylethyl)-2H-1-benzopyran-6-ol]	64%
